Tests used:
caspase 7 = experiment: Western blot, caspase 7 protein; type: cell-based, human; details: 24 h, in comparison to the control
Excerpt: (§1) We next used reverse transcription polymerase chain reaction (RT-PCR) and Western blot analysis to look at Bax (proapoptotic), Bcl-2 (antiapoptotic) and caspase 7 (executioner caspase) expression at gene and protein level as an additional marker of apoptosis occurrence. In fact, apoptotic cell death is mostly directed by the levels of Bcl-2 family, whether they are pro-apoptotic or antiapoptotic and targeting these molecules as a therapeutic strategy is continuously under development. As predicted, we observed an upregulation in the expression of Bax in MCF-7 treated cells to (1.7-, 2- and 2.4-fold) with compound 4d and to (1.2-, 1.4- and 1.6-fold) with compound 4f at (1.25, 2.5 and 5 µM) respectively (Figure 6). […] This shifting in Bax to Bcl-2 ratio usually started caspases activation which plays a critical role in apoptosis execution. Among all caspases, caspase 7 is considered as one of the most crucial executioner caspases that mediate cell death, and its expression strongly correlates with apoptosis stimulation.
MCF-7 cells were plated in six well plates at the density of 0.5 × 10^6 and kept for adherence for overnight. On the next day, complete media was replaced with the fresh one and treated the cells with compounds 4d and 4f for 24 h at various concentrations. After 24 h of treatment, cells were harvested and washed twice with 1× PBS before adding the lysis buffer (20 mM Tris pH 7.5, 150 mM Nacl, 1 mM Na2EDTA, 1 mM EGTA, 1% Triton X100, 1 μg/mL Leupeptin and 100 µM phenylmethylsulfonyl fluoride—PMSF) and kept it for 1 h on ice, with intermittent vortex mixing every 10 min. The samples were centrifuged at 13,000 rpm at 4 °C for 15 min and then the supernatants were transferred into new tubes. Total protein was measured by using Bio-Rad Bradford kit and then 35 µg of the total protein was run on a 12% SDS-PAGE and transferred to a nitrocellulose membrane. The membrane was blocked with 5% BSA in TBST (150 mM Nacl, 20 mM Tris base and 0.1% Tween 20) for 2 h at room temperature and then washed three times with TBST buffer. Then the membrane was incubated with the desired antibodies (p53, Bcl-2, Bax, caspase7 and β-actin) (1:200, Santa Cruz Biotecnology, Inc., Dallas, TX, USA) and kept on a rocker at 4 °C overnight. On the next day, the membrane was washed three times with TBST buffer and then incubated with horseradish peroxidase-conjugated secondary antibody (1:3000) for 1 h at room temperature. After incubation, membranes were washed three times with TBST buffer and then were ready for immunodetection. For immunodetection, membranes were incubated with ECL Western blotting detecting reagents (Amersaham Pharmacia Biotech Inc., Zurich, Switzerland) and then bands were obtained by exposing to X-ray films (Amersham).

Bax [1] = experiment: RT-PCR of apoptotic genes, Bax; type: cell-based, human; details: 24 h, vs control, normalized to β-actin
Excerpt: as §1
The MCF-7 cells (0.1 × 10^6) in 12 well plates were treated with different concentrations of compounds 4d and 4f for 24 h and untreated cells were used as a control. After 24 h of treatment, cell culture media was removed and the cells were lysed with Trizol (Invitrogen, Waltham, MA, USA), and total RNA was extracted from all the samples [42]. The RNA was estimated by Nano-drop and 1 µg of RNA was used in the cDNA synthesis. The cDNA was synthesized from RNA by using a cDNA synthesis kit (Invitrogen, Thermo Fisher Scientific, lnc., Waltham, MA, USA) according to the manufacturer’s instruction. After Reverse transcription at 42 °C for 60 min, RT-PCR was performed using 5× Firepol Master Mix ready to load (Solis BioDyne) according to manufacturer’s instruction. RT-PCR was used to analyze the gene expression level of P53, Bcl2, Bax and caspase 7 using specific sets of primers for each gene, while β-actin was utilized as a housekeeping gene. The program was run as follows, initial denaturation at 95 °C for 5 min; denaturation at 95 °C for 30 s; annealing at 55 °C for 45 s; elongation at 72 °C for 45 s (30 Cycles) and final extension at 72 °C for 10 min. The RT-PCR products were electrophoresed on a 1.2% agarose gel containing ethidium bromide and the gel was imaged on a Licor machine.

Bcl-2 = experiment: Western blot, Bcl-2 protein; type: cell-based, human; details: MCF-7, 1.25, 2.5 and 5 μM, 24 h, vs control cells
Excerpt: as §1, with “Among all caspases, caspase 7 is considered as one of the most crucial executioner caspases that mediate cell death, and its expression strongly correlates with apoptosis stimulation.” left out
(§2) MCF-7 cells were plated in six well plates at the density of 0.5 × 10^6 and kept for adherence for overnight. […] Total protein was measured by using Bio-Rad Bradford kit and then 35 µg of the total protein was run on a 12% SDS-PAGE and transferred to a nitrocellulose membrane. […] After incubation, membranes were washed three times with TBST buffer and then were ready for immunodetection. […]

[2] = test system: LoVo (colon) cancer cells; experiment: MTT cell viability assay, LoVo; type: cell-based; details: Homo sapiens, 48 h, average ± SD (n = 3)
Description: (§3) Compounds 4a–n were subjected to the cytotoxicity screening of the cell lines MCF-7 (breast), LoVo (colon), HepG2 (liver) and A549 (lung) carcinoma cells as well as HUVEC normal cell lines. The MTT assay was employed to assess cytotoxicity after 48 h of treatment with different concentrations of each compound and doxorubicin was used as a reference drug. The results were presented in Table 1 as growth inhibitory concentration (IC50 values).
(§4) Cell viability was determined using 3-(4,5-dimethylthiazol-2-yl)-2,5-diphenyl tetrazolium bromide (MTT) assay as stated previously. In brief, A549 (lung), HepG2 (liver), LoVo (colon), MCF-7 (breast) cancer cells as well as normal cells (HUVEC) were seeded in 96-well plates (10^5 per well) and compounds were added in a different final concentration. All cells were treated for 48 h, and then 10μL of MTT reagent (5 mg/mL) was added to each well and further incubated for 4 h. Thereafter, 0.1 mL of acidified isopropanol was added to solubilize formazan product and the developed color was measured at 570 nm in Microplate ELISA Reader (BioTek, Elx-800, Winooski, VT, USA). The IC50 values (concentration required for 50% inhibition of cell viability) were calculated using dose response curve. Cell viability was calculated as = (Ab Treated/Ab Control) × 100.
(§5) The A549, HepG2, LoVo and MCF-7 cancer cell lines were obtained from the German Collection of Microorganisms and Cell Cultures (DSMZ) (Braunschweig, Germany). For Human umbilical vein endothelial cells (HUVEC cells), it was purchased from American Type Culture Collection (16549; Cat no. PCS-100-010; ATTCC, Manassas, VA, USA).

Bax [3] = experiment: Western blot, Bax protein; type: cell-based, human; details: MCF-7, 1.25, 2.5 and 5 μM, 24 h, vs control cells
Excerpt: as §1, with “Among all caspases, caspase 7 is considered as one of the most crucial executioner caspases that mediate cell death, and its expression strongly correlates with apoptosis stimulation.” left out
as §2

HUVEC normal cells = experiment: MTT cell viability assay, normal HUVEC; type: cell-based; details: Homo sapiens, 48 h, average ± SD (n = 3)
Description: as §3, §4, §5

| SMILES | caspase 7 protein expression (Western blot) (caspase 7; MCF-7, 1.25 μM) [fold] | caspase 7 protein expression (Western blot) (caspase 7; MCF-7, 2.5 μM) [fold] | caspase 7 protein expression (Western blot) (caspase 7; MCF-7, 5 μM) [fold] | expression of Bax (RT-PCR) (Bax [1]; MCF-7, 1.25 µM) [fold] | expression of Bax (RT-PCR) (Bax [1]; MCF-7, 2.5 µM) [fold] | expression of Bax (RT-PCR) (Bax [1]; MCF-7, 5 µM) [fold] | expression of Bcl-2 protein (Western blot, in words) (Bcl-2) | IC50 [2] [µM] | expression of Bax protein (Western blot, in words) (Bax [3]) | IC50 (HUVEC normal cells) [µM] |
| --- | --- | --- | --- | --- | --- | --- | --- | --- | --- | --- |
| COc1cccc2c(=O)n(-c3ccc(S(=O)(=O)NCC(=O)Nc4ccc(C)cc4)cc3)c(SCC(=O)Nc3ccc(C)cc3)nc12 [Compound 4d] | 3 | 3.3 | 3.9 | 1.7 | 2 | 2.4 | downregulated in a dose-dependent manner | 6.87 ± 0.62 | markedly increased | 7.8 ± 0.6 |
| CCc1cccc(NC(=O)CNS(=O)(=O)c2ccc(-n3c(SCC(=O)Nc4cccc(CC)c4)nc4c(OC)cccc4c3=O)cc2)c1 [Compound 4f, N-(3-ethylphenyl)-2-((3-(4-(N-(2-((3-ethylphenyl)amino)-2-oxoethyl)sulfamoyl)-phe-nyl)-8-methoxy-4-oxo-3,4-dihydroquinazolin-2yl)thio)acetamide] | 1.14 | 1.2 | 1.5 | 1.2 | 1.4 | 1.6 | downregulated in a dose-dependent manner | 9.76 ± 1.68 | markedly increased | 17.9 ± 0.6 |

Source: article PMC8838787, “The Antiproliferative and Apoptotic Effects of a Novel Quinazoline Carrying Substituted-Sulfonamides: In Vitro and Molecular Docking Study” (Molecules, 2022)
